Among the data in ChEMBL document CHEMBL4002643, “Tubulin-binding dibenz[c,e]oxepines: Part 2. Structural variation and biological evaluation as tumour vasculature disrupting agents” (Bioorg Med Chem, 2017) are IC50 and Activity values, retold here.

The nature of assay [1]: Inhibition of porcine tubulin assembly measured for 30 mins by UV/visible spectrophotometric method. Details: species or system Sus scrofa.
In assay [2] the test system is DLD-1. In words: Induction of vascular shutdown in human DLD1 cells xenografted in Balb/C immunodeficient nude mouse at 400 mg/kg, iv by […] dye-based microscopic method. It is filed as functional, organism-based. The following applies: TDE = time-dependent effect. (In general: Xenograft models place foreign cells or tissue in a host animal.)
The subject of assay [3] is DLD-1. In words: Induction of vascular shutdown in human DLD1 cells xenografted in Balb/C immunodeficient nude mouse assessed as vascular element counts at 400 mg/kg, iv at 1 hr post dose by […] dye-based microscopic method (reference value: 3.73 +/- 3.1%). It is filed as functional.
Assay [4] has as its system DLD-1. Description: Induction of vascular shutdown in human DLD1 cells xenografted in Balb/C immunodeficient nude mouse assessed as vascular element counts at 400 mg/kg, iv at 4 hrs post dose by […] dye-based microscopic method (reference value: 3.73 +/- 3.1%). It is filed as functional.
The test system of assay [5] is DLD-1. In words: Induction of vascular shutdown in human DLD1 cells xenografted in Balb/C immunodeficient nude mouse assessed as vascular element counts at 400 mg/kg, iv at 24 hrs post dose by […] dye-based microscopic method (reference value: 3.73 +/- 3.1%). It is filed as functional.
For assay [6], the system named is DLD-1. In words: Vascular disrupting activity in human DLD1 cells xenografted in Balb/C immunodeficient nude mouse assessed as induction of necrosis by measuring necrotic area at 400 mg/kg, iv at 1 hr post dose by haematoxylin and eosin staining-based assay (reference value: 19 +/- 9.6%). It is filed as functional.
In assay [7] the test system is DLD-1. In words: Vascular disrupting activity in human DLD1 cells xenografted in Balb/C immunodeficient nude mouse assessed as induction of necrosis by measuring necrotic area at 400 mg/kg, iv at 4 hrs post dose by haematoxylin and eosin staining-based assay (reference value: 19 +/- 9.6%). It is filed as functional.
The test system of assay [8] is DLD-1. In words: Vascular disrupting activity in human DLD1 cells xenografted in Balb/C immunodeficient nude mouse assessed as induction of necrosis by measuring necrotic area at 400 mg/kg, iv at 24 hrs post dose by haematoxylin and eosin staining-based assay (reference value: 19 +/- 9.6%). It is filed as functional.
Another assay has as its system K562. Description: Cytotoxicity against human K562 cells assessed as growth inhibition after 5 days by MTT assay. It is filed as functional, cell-based. The following applies: K562, 120 h. For orientation: Tetrazolium dyes change colour on reduction, which living cells bring about.

Bounds are passed on as bounds.

What is called IC50 is the midpoint of a concentration-inhibition curve.

In assay [1], `COc1cc2c(c(OC)c1OC)-c1ccc(OC)c(=O)cc1[C@@H](NC(C)=O)CC2` [COLCHICINE] returned an IC50 of 2 µM.
Take `COc1cc2c(c(OC)c1OC)-c1ccc(OP(=O)([O-])[O-])cc1[C@@H](NC(C)=O)CC2.[Na+].[Na+]`: the Activity entry was “Tde” in the assay on DLD-1 [2]; 0.03% with DLD-1 [3]; 0.12% in the assay on DLD-1 [4]; 0.42% with DLD-1 [5]; 23.2% with DLD-1 [6]; 22.3% with DLD-1 [7]. For the same compound, the Activity with DLD-1 [8] stood at 91%.
`COc1cc2c(c(OC)c1OC)-c1ccc(N)cc1COC2`: the results for the IC50 (in assay [1]; in the assay on K562) were above 10 µM and 10 µM, respectively.
The like results for `COc1ccc2c(c1OS(=O)(=O)C(F)(F)F)COCc1cc(OC)c(OC)c(OC)c1-2` were, in that order, 15 µM and 0.25 µM.
